Assay results reported in US20210137913A1, “THERAPEUTIC AGENT FOR ASPIRATION PNEUMONIA, LUNG SUPPURATION, OR LUNG ABSCESS” (KYORIN PHARMACEUTICAL CO., LTD., priority 2017, published 2021).

Columns and labels:
anaerobic bacteria = details: Non Patent Literature 2; cited from earlier work
Anaerobe [1] = assay: Microbiological efficacy according to the causative bacteria (Lung suppuration/lung abscess); assay type: in vivo
Description: (§1) The investigational new drug A was administered intravenously for 7 to 14 days to 11 subjects suspected of having lung suppuration or lung abscess meeting the following criteria.
(§2) On the first day of the start of administration, two doses of investigational new drug A (300 mg/day) were used, and on the second day of administration, one dose of investigational new drug A (150 mg/day) was used, and then the same dose (150 mg/day) was maintained. The administration of the injection was performed intravenously over about 1 hour per dose.
(§3) Samples for microbiological evaluation were collected before starting an appropriate alternative antibacterial treatment.
(§4) Table 4 and Table 5 show the microbiological efficacy of Test Examples 1 and 2 according to the causative bacteria.

[2] = test system: genus Parvimonas P. micra; assay: as above; assay type: in vivo; details: case number 2
Description: as §1, §2, §3, §4

[3] = test system: genus Prevotella P. intermedia; assay: Microbiological efficacy according to the causative bacteria (Aspiration pneumonia); assay type: in vivo; details: case number 1
Description: (§5) The investigational new drug A was administered intravenously for 7 to 14 days to 13 subjects suspected of having aspiration pneumonia meeting the following criteria.
as §2, with “The patient presents with symptoms and inflammation that are characteristic of aspiration pneumonia. On” for “On”
as §3

[4] = test system: genus Actinomyces A. odontolyticus; assay: as above; assay type: in vivo; details: case number 1
Description: as §5
as §2, with “The patient presents with symptoms and inflammation that are characteristic of aspiration pneumonia. On” for “On”
as §3

[5] = test system: genus Veillonella Veillonella sp.; assay: as above; assay type: in vivo; details: case number 7
Description: as §5
as §2, with “The patient presents with symptoms and inflammation that are characteristic of aspiration pneumonia. On” for “On”
as §3

[6] = test system: genus Prevotella P. buccae; assay: as above; assay type: in vivo; details: case number 1
Description: as §5
as §2, with “The patient presents with symptoms and inflammation that are characteristic of aspiration pneumonia. On” for “On”
as §3

[7] = test system: genus Bacteroides Bacteroides sp.; assay: as above; assay type: in vivo; details: case number 2
Description: as §5
as §2, with “The patient presents with symptoms and inflammation that are characteristic of aspiration pneumonia. On” for “On”
as §3

[8] = test system: genus Prevotella Prevotella sp.; assay: as above; assay type: in vivo; details: case number 6
Description: as §5
as §2, with “The patient presents with symptoms and inflammation that are characteristic of aspiration pneumonia. On” for “On”
as §3

[9] = test system: subjects suspected of having lung suppuration or lung abscess; assay: Test Example 2: clinical efficacy in lung suppuration or lung abscess; assay type: in vivo, human
Description: as §1
On chest X-rays or CT images taken within 48 hours before the start of administration at the age of 16 years or older, a massive shadow or a shadow with cavities inside (nodular shadow, mass shadow) is observed. Regardless of the presence of a niveau due to pus accumulation.
The patient presents with symptoms and inflammation that are characteristic of lung suppuration or lung abscess.
as §2
(§6) The clinical efficacy of Test Examples 1 and 2 were determined by setting the following criteria, based on the criteria for clinical efficacy of pneumonia described in Clinical evaluation method of new antibacterial drugs in respiratory infections (2nd edition), Japanese Journal of Chemotherapy. 2012; 60(1): 30-45. 9). The primary endpoint was the efficacy rate at the end of administration or discontinuation of investigational new drug A.
(§7) The end of administration herein means the evaluation date on the day after the administration of the investigational new drug A is completed. Moreover, the time of discontinuation means the date on which the evaluation was performed within 3 days from the last administration date or the discontinuation judgment date of the investigational new drug A. Furthermore, “the end of administration or the time of discontinuation” is expressed as End of Treatment (EOT). In addition, CRP is an abbreviation for C-reactive protein, and is one of the acute phase reactants produced in a short time in response to various inflammations. It is a useful index for the observation of therapeutic effects since it increases in a few hours in bacterial infections such as pneumonia and decreases rapidly as the inflammation subsides.
(§8) “Early therapeutic effect” was defined as a case in which significant improvement is observed 3 days after administration (regardless of whether administration was completed or continued after 4 days).
as §3
(§9) In addition, if the discontinuation date is the start date of administration (day 0) or the second day of administration (day 1), the determination of early drug efficacy was regarded as unnecessary. In the case of the third day of administration (day 2) or later, it was determined using the test results at the time of discontinuation.
(§10) When the treatment was discontinued after the next day after the end of the administration, the clinical efficacy at the end of the administration was determined, and the determination of the clinical efficacy at the time of discontinuation was not required. In addition, it was judged as “Ineffective” when the treatment was discontinued or when it was changed to an alternative antibacterial treatment after the end of administration of the investigational new drug. […] When changing to an alternative antibacterial treatment, in principle, prescribed tests, examinations and judgments at the end of treatment were made before the change.
(§11) The efficacy rate is the value obtained by the following formula.
(§12) Efficacy rate=(number of subjects rated as “Effective”[…]number of subjects rated as “Effective” or “Ineffective”)×100(%)

Anaerobe [10] = assay: Microbiological efficacy according to the causative bacteria (Aspiration pneumonia); assay type: in vivo
Description: as §5
as §2, with “The patient presents with symptoms and inflammation that are characteristic of aspiration pneumonia. On” for “On”
as §3, §4

[11] = test system: genus Parvimonas P. micra; assay: as above; assay type: in vivo; details: case number 1
Description: as §5
as §2, with “The patient presents with symptoms and inflammation that are characteristic of aspiration pneumonia. On” for “On”
as §3, §4

[12] = test system: genus Fusobacterium F. nucleatum; assay: Microbiological efficacy according to the causative bacteria (Lung suppuration/lung abscess); assay type: in vivo; details: case number 4
Description: as §1, §2, §3

[13] = test system: genus Prevotella P. intermedia; assay: as above; assay type: in vivo; details: case number 1
Description: as §1, §2, §3

[14] = test system: genus Bacteroide B. fragilis; assay: as above; assay type: in vivo; details: case number 1
Description: as §1, §2, §3

[15] = test system: genus Veillonella Veillonella sp.; assay: as above; assay type: in vivo; details: case number 2
Description: as §1, §2, §3

[16] = test system: genus Prevotella P. oralis; assay: as above; assay type: in vivo; details: case number 1
Description: as §1, §2, §3

[17] = test system: genus Leptotrichia Leptotrichia buccalis; assay: as above; assay type: in vivo; details: case number 1
Description: as §1, §2, §3

[18] = test system: genus Porphyromonas P. gingivalis; assay: as above; assay type: in vivo; details: case number 1
Description: as §1, §2, §3

[19] = test system: genus Fusobacterium F. necrophorum; assay: as above; assay type: in vivo; details: case number 1
Description: as §1, §2, §3

[20] = test system: genus Prevotella P. melaninogenica; assay: as above; assay type: in vivo; details: case number 1
Description: as §1, §2, §3

[21] = test system: genus Prevotella Prevotella sp.; assay: as above; assay type: in vivo; details: case number 1
Description: as §1, §2, §3

[22] = test system: subjects suspected of having aspiration pneumonia; assay: Test Example 1: clinical efficacy in aspiration pneumonia; assay type: in vivo, human
Description: as §5
A clear infiltrative shadow appearing acutely on chest X-rays or CT images taken within 48 hours before the start of administration at the age of 16 years or older, is observed.
Confirmation of clear aspiration, choking or dysphagia, has a disease or history of disease with potential dysphagia.
as §2, with “The patient presents with symptoms and inflammation that are characteristic of aspiration pneumonia. On” for “On”
as §6, §7, §8, §3, §9, §10, §11, §12

[23] = lung suppuration/lung abscess, Anaerobe total, case number 16
[24] = Test Example 2, lung suppuration or lung abscess, 3 days after administration, number of subjects
[25] = Test Example 2, lung suppuration or lung abscess, EOT, number of subjects
[26] = conclusion from Table 2 and Table 3
[27] = aspiration pneumonia, Anaerobe total, case number 19
[28] = Test Example 1, aspiration pneumonia, 3 days after administration, number of subjects
[29] = Test Example 1, aspiration pneumonia, EOT, number of subjects

O=C(O)c1cn(C2CC2)c2cc(N3CCNCC3)c(F)cc2c1=O [ciprofloxacin]
insufficient antibacterial activity: antibacterial activity against anaerobic bacteria (in words) (anaerobic bacteria)

COc1c(N2C[C@H](CNC3CC3)[C@H](F)C2)c(F)cc2c(=O)c(C(=O)O)cn(CCF)c12 [investigational new drug A, 7-[(3S,4S)-3-{(cyclopropylamino)methyl}-4-fluoropyrrolidin-1-yl]-6-fluoro-1-(2-fluoroethyl)-8-methoxy-4-oxo-1,4-dihydroquinoline-3-carboxylic acid]
10: End of Treatment, Clinical efficacy: Effective [9, 25]
15: Result: Eradicated (Anaerobe [1]; [23])
1: Result: Persisted (Anaerobe [1]; [23]) | Result: Eradicated [3] | Result: Eradicated [4] | Result: Eradicated [6] | End of Treatment, Clinical efficacy: Ineffective [9, 25] | Result: Eradicated [11] | Result: Persisted [13] | Result: Eradicated [14] | Result: Eradicated [16] | Result: Eradicated [17] | Result: Eradicated [18] | Result: Eradicated [19] | Result: Eradicated [20] | Result: Eradicated [21] | Early drug efficacy evaluation, Clinical efficacy: Ineffective [22, 28] | End of Treatment, Clinical efficacy: Undeterminable [22, 29]
5: Result: Eradicated [5]
high therapeutic effect: therapeutic effect on lung suppuration or lung abscess (in words) [9, 26] | therapeutic effect on aspiration pneumonia (in words) [22, 26]
2: Result: Eradicated [2] | Result: Persisted [5] | Result: Eradicated [7] | Early drug efficacy evaluation, Clinical efficacy: Ineffective [9, 24] | Result: Persisted (Anaerobe [10]; [27]) | Result: Eradicated [15]
4: Result: Eradicated [12]
12: Early drug efficacy evaluation, Clinical efficacy: Effective ([22]; Test Example 1, aspiration pneumonia, 13 subjects, i.v. 300 mg day 1 then 150 mg/day, 3 days after administration, number of subjects) | End of Treatment, Clinical efficacy: Effective ([22]; Test Example 1, aspiration pneumonia, end of administration or discontinuation (EOT), number of subjects)
high antibacterial effect: antibacterial effect on the causative bacteria of lung suppuration or lung abscess (in words) (Anaerobe [1]; conclusion from Table 5) | antibacterial effect on the causative bacteria of aspiration pneumonia (in words) (Anaerobe [10]; conclusion from Table 4)
17: Result: Eradicated (Anaerobe [10]; [27])
9: Early drug efficacy evaluation, Clinical efficacy: Effective ([9]; Test Example 2, lung suppuration or lung abscess, 11 subjects, i.v. 300 mg day 1 then 150 mg/day, 3 days after administration, number of subjects)
82%: Early drug efficacy evaluation: Efficacy rate ([9]; Test Example 2, lung suppuration or lung abscess, 3 days after administration)
92%: Early drug efficacy evaluation: Efficacy rate ([22]; Test Example 1, aspiration pneumonia, 3 days after administration)
6: Result: Eradicated [8]
91%: End of Treatment: Efficacy rate ([9]; Test Example 2, lung suppuration or lung abscess, EOT) | End of Treatment: Efficacy rate ([9]; Test Example 2, lung suppuration or lung abscess, EOT, listed as 7-[(3S,4S)-3-{(cyclopropylamino)methyl}-4-fluoropyrrolidin-1-yl]-6-fluoro-1-(2-f))
100%: End of Treatment: Efficacy rate ([22]; Test Example 1, aspiration pneumonia, EOT) | End of Treatment: Efficacy rate ([22]; Test Example 1, aspiration pneumonia, EOT, listed as 7-[(3S,4S)-3-{(cyclopropylamino)methyl}-4-fluoropyrrolidin-1-yl]-6-fluoro-1-(2-f))
0: Result: Persisted [2] | Result: Persisted [3] | Result: Persisted [4] | Result: Persisted [6] | Result: Persisted [7] | Result: Persisted [8] | Early drug efficacy evaluation, Clinical efficacy: Undeterminable [9, 24] | End of Treatment, Clinical efficacy: Undeterminable [9, 25] | Result: Persisted [11] | Result: Persisted [12] | Result: Eradicated [13] | Result: Persisted [14] | Result: Persisted [15] | Result: Persisted [16] | Result: Persisted [17] | Result: Persisted [18] | Result: Persisted [19] | Result: Persisted [20] | Result: Persisted [21] | Early drug efficacy evaluation, Clinical efficacy: Undeterminable [22, 28] | End of Treatment, Clinical efficacy: Ineffective [22, 29]

C[C@H]1COc2c(C3(N)CC3)c(F)cc3c(=O)c(C(=O)O)cn1c23 [pazufloxacin]
insufficient antibacterial activity: antibacterial activity against anaerobic bacteria (in words) (anaerobic bacteria)
